From patent US20250230193A1, “CYCLIC COMPOUND HAVING SELECTIVE KRAS INHIBITORY EFFECT ON HRAS AND NRAS” (CHUGAI SEIYAKU KABUSHIKI KAISHA, priority 2022, published 2025)
Where a SMILES comes first, the peptide text is derived from it. Bridges are numbered along the chain shown (N, C = ends). [ ]: non-standard residue; d: D form. The star is where a group is joined. hPhe(3-Cl-4-CF3) = N[C@@H](CCc1ccc(C(F)(F)F)c(Cl)c1)C(=O)O; NPrPhe(4-CF3) = CCCN[C@@H](Cc1ccc(C(F)(F)F)cc1)C(=O)O; NPrPhe(4-Me) = CCCN[C@@H](Cc1ccc(C)cc1)C(=O)O; NMeGly(cPent) = CN[C@H](C(=O)O)C1CCCC1; Pro(4,4-F2) = O=C(O)[C@@H]1CC(F)(F)CN1; NEtLeu = CCN[C@@H](CC(C)C)C(=O)O; NMeD = CN[C@@H](CC(=O)O)C(=O)O; NMeL = CN[C@@H](CC(C)C)C(=O)O; Morpholide = C1CN(*)CCO1; Ac5c = NC1(C(=O)O)CCCC1; Ac4c = NC1(C(=O)O)CCC1; NEtG = CCNCC(=O)O; Sar = CNCC(=O)O

Experiments:
[1] = target: GDP-bound NRAS wild-type protein (Homo sapiens, UniProt P01111); experiment: Binding to NRAS by surface plasmon resonance (SPR), Single Cycle Kinetics; details: for NRAS/KRAS (ratio of KD value with respect to NRAS to KD value with respect to KRAS) / NRAS/KRAS (ratio of KD value for NRAS to KD value for KRAS): GDP-bound NRAS wild-type vs GDP-bound KRAS wild-type
[2] = target: GDP-bound HRAS wild-type protein (Homo sapiens, UniProt P01112); experiment: Binding to HRAS by surface plasmon resonance (SPR), Single Cycle Kinetics; details: for HRAS/KRAS (ratio of KD value with respect to HRAS to KD value with respect to KRAS) / HRAS/KRAS (ratio of KD value for HRAS to KD value for KRAS): GDP-bound HRAS wild-type vs GDP-bound KRAS wild-type
GDP-bound HRAS wild-type protein, sequence (P01112 whole entry): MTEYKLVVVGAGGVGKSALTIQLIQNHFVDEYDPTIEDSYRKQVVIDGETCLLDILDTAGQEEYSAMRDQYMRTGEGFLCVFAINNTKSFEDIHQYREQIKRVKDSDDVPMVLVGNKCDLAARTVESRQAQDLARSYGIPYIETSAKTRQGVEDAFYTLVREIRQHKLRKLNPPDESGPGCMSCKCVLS

GDP-bound NRAS wild-type protein, sequence (P01111 whole entry): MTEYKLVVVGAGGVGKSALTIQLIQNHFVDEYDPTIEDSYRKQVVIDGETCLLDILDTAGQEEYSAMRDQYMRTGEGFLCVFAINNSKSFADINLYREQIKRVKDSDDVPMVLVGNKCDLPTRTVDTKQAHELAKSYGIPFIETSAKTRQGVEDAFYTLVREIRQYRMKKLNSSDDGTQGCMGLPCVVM

CC[C@H](C)[C@@H]1NC(=O)[C@H](CC(C)C)N(C)C(=O)C[C@@H](C(=O)N2CCOCC2)N(C)C(=O)[C@H](C2CCCC2)N(C)C(=O)C2(CCCC2)NC(=O)[C@@H]2CCCN2C(=O)[C@H](CCc2ccc(C(F)(F)F)c(Cl)c2)NC(=O)CN(C)C(=O)[C@H](Cc2ccc(OC)cc2)N2CCCCC[C@@H](C2=O)N(C)C(=O)CN(C)C1=O [PP0614]
NRAS/KRAS (ratio of KD value with respect to GDP-bound NRAS wild-type protein to KD value with respect to KRAS) ([1]; SPR): B (a compound having 3 or more and less than 10 is denoted as B)
HRAS/KRAS (ratio of KD value with respect to GDP-bound HRAS wild-type protein to KD value with respect to KRAS) ([2]; SPR): B (a compound having 3 or more and less than 10 is denoted as B)

CCC[C@H]1C(=O)N[C@@H]([C@@H](C)CC)C(=O)N(C2CC2)CC(=O)N(C)[C@H]2C/C=C\CCN(C2=O)[C@@H](Cc2ccc(C)cc2)C(=O)N(C)CC(=O)N[C@@H](CCc2ccc(Cl)c(Cl)c2)C(=O)N2C[C@H](OCC)C[C@H]2C(=O)NC2(CC(C)(C)C2)C(=O)N(C)[C@@H](C2CCCC2)C(=O)N(C)[C@H](C(=O)N(C)C)CC(=O)N1C [PP2559]
NRAS/KRAS (ratio of KD value with respect to GDP-bound NRAS wild-type protein to KD value with respect to KRAS) ([1]; class symbols): A (a compound having 10 or more and less than 20 is denoted as A)
HRAS/KRAS (ratio of KD value with respect to GDP-bound HRAS wild-type protein to KD value with respect to KRAS) ([2]; class symbols): A (a compound having 10 or more and less than 20 is denoted as A)

CCO[C@@H]1C[C@H]2C(=O)NC3(CC(C)(C)C3)C(=O)N(C)[C@@H](C(CC)CC)C(=O)N(C)[C@H](C(=O)N(C)C)CC(=O)N(C)[C@@H](C)C(=O)N[C@@H]([C@@H](C)CC)C(=O)N(C)CC(=O)N(C)[C@H]3C/C=C\CCN(C3=O)[C@@H](Cc3ccc(C)cc3)C(=O)N(C)CC(=O)N[C@@H](CCc3cc(F)c(C(F)(F)F)c(F)c3)C(=O)N2C1 [PP2143]
NRAS/KRAS (ratio of KD value with respect to NRAS to KD value with respect to KRAS) ([1]; SPR): A (a compound having 10 or more and less than 20 is denoted as A)
HRAS/KRAS (ratio of KD value with respect to HRAS to KD value with respect to KRAS) ([2]; SPR): A (a compound having 10 or more and less than 20 is denoted as A)

CC[C@H](C)[C@@H]1NC(=O)[C@H](CC(C)C)N(C)C(=O)C[C@@H](C(=O)N2CCOCC2)N(C)C(=O)[C@H](C2CCCC2)N(C)C(=O)C2(CCCC2)NC(=O)[C@@H]2CCCN2C(=O)[C@H](CCc2cc(F)c(C(F)(F)F)c(F)c2)NC(=O)CN(C)C(=O)[C@H](Cc2ccc(C(F)(F)F)cc2)N2CCCC[C@@H](C2=O)N(C)C(=O)[C@H](CC)N(C)C1=O [PP0551]
NRAS/KRAS (ratio of KD value with respect to GDP-bound NRAS wild-type protein to KD value with respect to KRAS) ([1]; SPR): C (A compound having a KD ratio of 0.1 or more and less than 3 is denoted as C)
HRAS/KRAS (ratio of KD value with respect to GDP-bound HRAS wild-type protein to KD value with respect to KRAS) ([2]; SPR): B (a compound having 3 or more and less than 10 is denoted as B)

CCO[C@@H]1C[C@H]2C(=O)NC3(CC(C)(C)C3)C(=O)N(C)[C@@H](C3CCCC3)C(=O)N(C)[C@H](C(=O)N(C)C)CC(=O)N(C)[C@@H](COC)C(=O)N[C@@H]([C@@H](C)CC)C(=O)N(C)CC(=O)N(C)[C@H]3C/C=C\CCN(C3=O)[C@@H](Cc3ccc(C)cc3)C(=O)N(C)CC(=O)N[C@@H](CCc3cc(F)c(C(F)(F)F)c(F)c3)C(=O)N2C1 [PP2391]
NRAS/KRAS (ratio of KD value with respect to NRAS to KD value with respect to KRAS) ([1]; SPR): A (a compound having 10 or more and less than 20 is denoted as A)
HRAS/KRAS (ratio of KD value with respect to HRAS to KD value with respect to KRAS) ([2]; SPR): A (a compound having 10 or more and less than 20 is denoted as A)

CCCN1C(=O)CN(C)C(=O)CNC(=O)[C@H]([C@@H](C)CC)NC(=O)[C@H](CC(C)C)N(C)C(=O)C[C@@H](C(=O)N(C)C)NC(=O)[C@H](C2CCCC2)N(C)C(=O)C2(CCCC2)NC(=O)[C@@H]2CCCN2C(=O)[C@H](CCc2ccc(C(F)(F)F)c(Cl)c2)NC(=O)CN(C)C(=O)[C@@H]1Cc1ccc(C(F)(F)F)cc1 [PP0361] ([NMeL]IG[Sar][NPrPhe(4-CF3)][Sar][hPhe(3-Cl-4-CF3)]P[Ac5c][NMeGly(cPent)]D-NMe2; lactam N-11)
NRAS/KRAS (ratio of KD for GDP-bound NRAS wild-type to KD for KRAS) ([1]; SPR): B (a compound having 3 or more and less than 10 is denoted as B)
HRAS/KRAS (ratio of KD for GDP-bound HRAS wild-type to KD for KRAS) ([2]; SPR): C (A compound having a KD ratio of 0.1 or more and less than 3 is denoted as C)

CCCN1C(=O)CN(CC)C(=O)CN(C)C(=O)[C@H]([C@@H](C)CC)NC(=O)[C@H](CC(C)C)N(C)C(=O)C[C@@H](C(=O)N2CCOCC2)N(C)C(=O)[C@H](C2CCCC2)N(C)C(=O)C2(CCCC2)NC(=O)[C@@H]2CCCN2C(=O)[C@H](CCc2ccc(C(F)(F)F)c(Cl)c2)NC(=O)CN(CC)C(=O)[C@@H]1Cc1ccc(C)cc1 [PP0069] ([NMeL]I[Sar][NEtG][NPrPhe(4-Me)][NEtG][hPhe(3-Cl-4-CF3)]P[Ac5c][NMeGly(cPent)][NMeD]-Morpholide; lactam N-11)
NRAS/KRAS (ratio of KD for GDP-bound NRAS wild-type to KD for KRAS) ([1]; SPR): C (A compound having a KD ratio of 0.1 or more and less than 3 is denoted as C)
HRAS/KRAS (ratio of KD for GDP-bound HRAS wild-type to KD for KRAS) ([2]; SPR): C (A compound having a KD ratio of 0.1 or more and less than 3 is denoted as C)

CCCN1C(=O)CN(C)C(=O)CN(C)C(=O)[C@H]([C@@H](C)CC)NC(=O)[C@H](CC(C)C)N(CC)C(=O)C[C@@H](C(=O)N2CCOCC2)N(C)C(=O)[C@H](C2CCCC2)N(C)C(=O)C2(CCC2)NC(=O)[C@@H]2CCCN2C(=O)[C@H](CCc2ccc(C(F)(F)F)c(Cl)c2)NC(=O)CN(C)C(=O)[C@@H]1Cc1ccc(C(F)(F)F)cc1 [PP1946] ([NEtLeu]I[Sar][Sar][NPrPhe(4-CF3)][Sar][hPhe(3-Cl-4-CF3)]P[Ac4c][NMeGly(cPent)][NMeD]-Morpholide; lactam N-11)
NRAS/KRAS (ratio of KD value for NRAS to KD value for KRAS) ([1]; SPR): B (a compound having 3 or more and less than 10 is denoted as B)
HRAS/KRAS (ratio of KD value for HRAS to KD value for KRAS) ([2]; SPR): C (A compound having a KD ratio of 0.1 or more and less than 3 is denoted as C)

CCCN1C(=O)CN(C)C(=O)CN(CC)C(=O)[C@H]([C@@H](C)CC)NC(=O)[C@H](CC(C)C)N(C)C(=O)C[C@@H](C(=O)N2CCOCC2)NC(=O)[C@H](C2CCCC2)N(C)C(=O)C2(CCC2)NC(=O)[C@@H]2CC(F)(F)CN2C(=O)[C@H](CCc2ccc(C(F)(F)F)c(Cl)c2)NC(=O)CN(C)C(=O)[C@@H]1Cc1ccc(C(F)(F)F)cc1 [PP0334] ([NMeL]I[NEtG][Sar][NPrPhe(4-CF3)][Sar][hPhe(3-Cl-4-CF3)][Pro(4,4-F2)][Ac4c][NMeGly(cPent)]D-Morpholide; lactam N-11)
NRAS/KRAS (ratio of KD for GDP-bound NRAS wild-type to KD for KRAS) ([1]; SPR): B (a compound having 3 or more and less than 10 is denoted as B)
HRAS/KRAS (ratio of KD for GDP-bound HRAS wild-type to KD for KRAS) ([2]; SPR): C (A compound having a KD ratio of 0.1 or more and less than 3 is denoted as C)

CCO[C@@H]1C[C@H]2C(=O)NC3(CCC3)C(=O)N(C)[C@@H](C3CCCC3)C(=O)N(C)[C@H](C(=O)N3CCOCC3)CC(=O)N(C)[C@@H](C)C(=O)N[C@@H]([C@@H](C)CC)C(=O)N(C)CC(=O)N(C)[C@H]3CCCCCN(C3=O)[C@@H](Cc3ccc(C(F)(F)F)cc3)C(=O)N(C)CC(=O)N[C@@H](CCc3cc(F)c(C(F)(F)F)c(F)c3)C(=O)N2C1 [PP0474]
NRAS/KRAS (ratio of KD value with respect to GDP-bound NRAS wild-type protein to KD value with respect to KRAS) ([1]; SPR): B (a compound having 3 or more and less than 10 is denoted as B)
HRAS/KRAS (ratio of KD value with respect to GDP-bound HRAS wild-type protein to KD value with respect to KRAS) ([2]; SPR): B (a compound having 3 or more and less than 10 is denoted as B)

CCCN(C)C(=O)[C@@H]1CC(=O)N(C)[C@@H](CCOC)C(=O)N[C@@H]([C@@H](C)CC)C(=O)N(C)CC(=O)N(C)[C@H]2C/C=C\CCN(C2=O)[C@@H](Cc2ccc(C(F)(F)F)cc2)C(=O)N(C)CC(=O)N[C@@H](CCc2cc(F)c(C(F)(F)F)c(F)c2)C(=O)N2C[C@@H](C)C[C@H]2C(=O)NC2(CC(C)(C)C2)C(=O)N(C)[C@@H](C2CCCC2)C(=O)N1C [PP1974]
NRAS/KRAS (ratio of KD value for NRAS to KD value for KRAS) ([1]; SPR): A (a compound having 10 or more and less than 20 is denoted as A)
HRAS/KRAS (ratio of KD value for HRAS to KD value for KRAS) ([2]; SPR): A (a compound having 10 or more and less than 20 is denoted as A)
